Measured values from US8022103B2, “Ester prodrugs of prostratin and related phorbol compounds” (Salvia Sciences, Inc., priority 2005, dated 2011).
In brackets after ≈: the same amount, converted by molar mass. Like-named read-outs stand apart in the source and are kept apart here.

Key:
SIVMac251 = experiment: PBMC antiviral assay, SIVMac251; assay type: cell-based, SIV; conditions: SIVMac251, human PBMCs
Procedure: Compounds SA-101A and SA-101B were tested for antiviral activity against HIV-1 in peripheral blood mononuclear cells (PBMC) acutely infected with the HIV-1 isolates. PBMCs were derived from normal HIV-1 negative donors, and cultured under conditions which promote cell survival and HIV replication. Fresh human blood was obtained commercially from Biological Specialty Corporation (Colmar, Pa.). The low passage clinical isolates HIV-1Ba-L, HIVIIIB, and SIVmac251 were from the NIAID AIDS Research and Reference Reagent Program. Immediately before use, pre-titered aliquot of the viruses were removed from storage in a freezer (−80° C.) and thawed rapidly to room temperature in a biological safety cabinet. Phytohemagglutinin (PHA-P) was obtained from Sigma (St. Louis, Mo.) and recombinant IL-2 was obtained from R&D Systems Inc. (Minneapolis, Minn.). Antiviral activity was tested from a high-test concentration of 100 μM or 100 μg/ml with nine ½-log serial dilutions of the compound to derive applicable IC50 (concentration inhibition virus replication by 50%), IC90 (concentration inhibition virus replication by 90%), TC50 (concentration decreasing cell viability by 50%) and TI (therapeutic index: TC50/IC50) values.
Preparation of PMBC. Fresh Human PBMCs, Seronegative for HIV and HBV, were isolated from screened donors (Interstate Blood Bank, Inc. Memphis, Tenn.). Cells were pelleted/washed 2-3 times by low speed centrifugation and resuspensded in PBS to remove contaminating platelets. The leukophoresed blood was then diluted 1:1 with Dulbecco's Phosphate Buffered Saline (DPBS) and layered over 14 mL of Lymphocyte Separation Medium (LSM; Cellgro® by Mediatech, Inc.; density 1.078+/−0.002 g/ml; Cat. # 85-072-CL) in a 50 mL centrifuge tube and then centrifuged for 30 minutes at 600×g. […]
PMBC assay. […] Pooling (mixing) of mononuclear cells from more than one donor is used to minimize the variability observed between individual donors, which results from quantitative and qualitative differences in HIV infection and overall response to the PHA and IL-2 of primary lymphocyte populations. […]

Human PBMCs = experiment: MTS staining for PBMC viability (cytotoxicity); assay type: cell-based; conditions: for Cytotoxicity: at the concentrations evaluated
Procedure: PMBC assay. For the standard PBMC assay, PHA-P stimulated cells from at least two normal donors were pooled (mixed together), diluted in fresh medium to a final concentration of 1×10^6 cells/mL, and plated in the interior wells of a 96 well round bottom microplate at 50 μL/well (5×10^4 cells/well) in a standard format developed by the Infectious Disease Research department of Southern Research Institute. Pooling (mixing) of mononuclear cells from more than one donor is used to minimize the variability observed between individual donors, which results from quantitative and qualitative differences in HIV infection and overall response to the PHA and IL-2 of primary lymphocyte populations. Each plate contains virus/cell control wells (cells plus virus), experimental wells (drug plus cells plus virus) and compound control wells ([…], necessary for MTS monitoring of cytotoxicity). Since HIV-1 is not cytopathic to PBMCs, this allows the use of the same assay plate for both antiviral activity and cytotoxicity measurements. Test drug dilutions were prepared at a 2× concentration in microtiter tubes and 100 μL of each concentration was placed in appropriate wells using the standard format. 50 μL of a predetermined dilution of virus stock was placed in each test well (final MOI˜0.1). The PBMC cultures were maintained for seven days following infection at 37° C., 5% CO2. After this period, cell-free supernatant samples were collected for analysis of reverse transcriptase activity and/or HIV p24 content. Following removal of supernatant samples, compound cytotoxicity was measured by addition of MTS to the plates for determination of cell viability. Wells were also examined microscopically and any abnormalities were noted.
MTS staining for PBMC viability to measure cytotoxicity. At assay termination, assay plates were stained with the soluble tetrazolium-based dye MTS (CellTiter 96 Reagent, Promega) to determine cell viability and quantify compound toxicity. The mitochondrial enzymes of metabolically active cells metabolize MTS to yield a soluble formazan product. This allows the rapid quantitative analysis of cell viability and compound cytotoxicity. […] At termination of the assay, 20 μL of MTS reagent was added per well. The microtiter plates were then incubated 4 6 hrs at 37° C. The incubation intervals were chosen based on empirically determined times for optimal dye reduction. Adhesive plate sealers were used in place of the lids, the sealed plate was inverted several times to mix the soluble formazan product and the plate was read spectrophotometrically at 490/650 ηm with a Molecular Devices Vmax or SpectraMaxPlus plate reader.
Data analysis. Using an in-house computer program, IC50 (50%, inhibition of virus replication), IC90 (90%, inhibition of virus replication), IC95 (95%, inhibition of virus replication), TC50 (50% reduction in cell viability), TC90 (90% reduction in cell viability), TC95 (95% reduction in cell viability), and a therapeutic index (TI=TC50/IC50) were determined. AZT (nucleoside reverse transcriptase inhibitor) was used as a positive control antiviral compound.

SMILES | IC50 (SIVMac251; Simian immunodeficiency virus, PBMC) [µg/mL] | IC90 (SIVMac251; Simian immunodeficiency virus, PBMC, read-out: IC90) [µg/mL] | TC50 (Human PBMCs; HIV-1Ba-L assay plate) [µg/mL] | TC50 (Human PBMCs; HIV-1IIIB assay plate) [µg/mL] | TC50 (Human PBMCs; SIVMac251 assay plate) [µg/mL] | Cytotoxicity (Human PBMCs) | IC90 (SIVMac251; 40% Human AB serum) [µg/mL] | Cytotoxicity (Human PBMCs; 40% human AB serum) | TC50 (Human PBMCs; HIV-1Ba-L assay plate, 40% Human AB serum) [µg/mL] | TC50 (Human PBMCs; HIV-1IIIB assay plate, 40% Human AB serum) [µg/mL] | TC50 (Human PBMCs; SIVMac251 assay plate, 40% Human AB serum) [µg/mL]
CC(=O)O[C@@]12C[C@@H](C)[C@@]3(O)[C@@H](C=C(CO)C[C@]4(O)C(=O)C(C)=C[C@@H]34)[C@@H]1C2(C)C [SA-101A, 12-deoxyphorbol 13-acetate] | 0.39 (≈ 0.999 µM) | 0.9 (≈ 2.3 µM) | >1.00 | >1.00 | >1.00 | no cytotoxicity | – | – | – | – | –
CC(=O)OC12CC(C)C3(O)C(C=C(COC(=O)CCC(=O)O)CC4(O)C(=O)C(C)=CC43)C1C2(C)C (centres unmarked) [SA-101B, Prostratin Succinate] | – | – | – | – | – | – | >1.00 | no cytotoxicity | >1.00 | >1.00 | >1.00
